What all share (type): in vivo
Test [1] deals with ATCC 75295 rice line. The test is described as follows: Field plot test with AHAS-inhibiting herbicides, ATCC 75295. The method, then: The resistance of these plants to several other AHAS-inhibiting herbicides was also tested. Nine-foot-long field plots were planted with seven rows of rice per plot. The test included nine check rice varieties, and the ATCC 75295 rice line. A shielded spray boom was used to apply herbicide, spraying six of the seven rows in each plot. The four herbicides used were Pursuit (imazethapyr: (±)-2-[4,5-dihydro-4-methyl-4-(1-methylethyl)-5-oxo-1H-imidazol-2-yl]-5-ethyl-3-pyridinecarboxylic acid); Scepter (imazaquin: 2-[4,5-dihydro-4-methyl-4-(1-methylethyl)-5-oxo-1H-imidazol-2-yl]-3-quinolinecarboxylic acid); Accent (nicosulfuron: 2-(((((4,6-dimethoxypyrimidin-2-yl)aminocarbonyl)) aminosulfonyl))-N,N-dimethyl-3-pyridinecarboxamide); and Beacon (primisulfuron: 3-[4,6-bis(difluoromethoxy)-pyrimidin-2-yl]-1-(2-methoxycarbonylphenylsulfonyl)urea). The herbicides were applied to two replicate plots for each herbicide when the rice was at the three-leaf stage of maturity. Two replicate plots of each check variety and of the resistant line were left unsprayed as controls. The Accent treatment used 0.67 ounce of product (0.50 ounce active ingredient) per acre, with 0.25% nonionic surfactant. The Pursuit treatment used four ounces of product (1.00 ounce active ingredient) per acre, with 0.25% nonionic surfactant. The Scepter treatment used one pint of product (3.00 ounces active ingredient) per acre, with 0.25% nonionic surfactant. The Beacon treatment used 0.76 ounce of product (0.57 ounce active ingredient) per acre, with 0.25% nonionic surfactant. […] A similar test with the same rice varieties and the ATCC 75295 line was conducted at the five-leaf stage of development (i.e., plants fifteen days older than in the test described above), using Accent and Pursuit at the rates given above. […] The ATCC 75295 line was resistant only when herbicide was applied post-emergence.

The subject of test [2] is progeny of the mutant rice plant (ATCC 97523). The experiment in a line: Subsequent greenhouse and field testing of progeny of the surviving plant. Conditions: herbicides applied either pre-emergence or post-emergence. From the text:
(Imazamox is sold by American Cyanamid under the trade name Raptor, and has as active ingredient (+)-5-methoxymethyl-2-(4-isopropyl-4-methyl-5-oxo-2-imidazolin-2-yl) nicotinic acid. Imazameth is sold by American Cyanamid under the trade name Cadre, and has as active ingredient (±)-2-[4,5-dihydro-4-methyl-4-(1-methyl-ethyl)-5-oxo-1H-imidazol-2-yl]- 5-methyl-3-pyridinecarboxylicacid;alternatechemicalname (±)-2-(4-isopropyl-4-methyl-5-oxo-2-imidazolin-2-yl)-5-methylnicotinic acid). Imazapyr is sold by American Cyanamid under the trade name Arsenal, and has active ingredient 2-[4,5-dihydro-4-methyl-4-(1-methylethyl)-5-oxo-1H-imidazol-2-yl]-3-pyridinecarboxylic acid) This line is resistant to herbicides applied either pre-emergence or post-emergence.

Test [3] deals with mutagenised rice seedlings of ten rice varieties. The test is described as follows: Field screen of mutagenised rice seedlings, all other plants. Conditions: 2X treatment: nicosulfuron 0.063 lb a.i. per acre, imazethapyr 0.125 lb a.i. per acre; 0.25% non-ionic surfactant; 3-4 leaf stage; about four weeks later. From the text: The second resistance mechanism resulted from inducing mutations in seeds of each of ten rice varieties. Mutations were induced by exposure either to gamma rays or to the chemical mutagen ethyl methanesulfonate (EMS). Ten-pound lots of seed of each variety were subjected to 25 k-rad of gamma irradiation from a Cobalt-60 source at the Nuclear Science Center, Louisiana State University, Baton Rouge, La. prior to planting. An additional ten pounds of seed of each variety was divided into three equal portions; and each portion was soaked for 16 hours in either 0.1%, 0.5%, or 1% EMS immediately prior to planting. Several hundred pounds of seed were harvested from plants grown from the seeds subjected to these mutagenic treatments.
The following spring the harvested seed was planted in strips in a field planting occupying a total of about three acres. At the 3-4 leaf stage of seedling development, herbicides were applied to screen for herbicide-resistant mutants. Half of the seedlings of each variety were sprayed with a 2X treatment of nicosulfuron, and half were sprayed with a 2X treatment of imazethapyr, in both cases by a tractor-mounted sprayer. Nicosulfuron was applied at the rate of 0.063 lb active ingredient (a.i.) per acre, and imazethapyr was applied at 0.125 lb a.i. per acre. Non-ionic surfactant (0.25%) was added to each spray solution. […]

Setting [4] is: subsequent tests (data not shown).
The mark [5] stands for this setting: five-leaf stage (plants fifteen days older), same rates as in the three-leaf test.
The mark [6] stands for this setting: three-leaf stage, per acre a.i.: Accent 0.50 ounce, Pursuit 1.00 ounce, Scepter 3.00 ounces, Beacon 0.57 ounce, 0.25% nonionic surfactant.

Here are results for six compounds from patent US5736629A, “Herbicide resistant rice” (priority 1997, dated 1998).

With `Cc1cnc(C2=NC(C)(C(C)C)C(=O)N2)c(C(=O)O)c1` (racemic) [imazameth, (±)-2-[4,5-dihydro-4-methyl-4-(1-methyl-ethyl)-5-oxo-1H-imidazol-2-yl]-5-methyl-3-pyridinecarboxylicacid], the “Resistance of the rice line (in words)” value in test [1] (setting [4]) is listed as “exhibited resistance”; in test [2] it was “resistance”.
For the compound `COCc1cnc(C2=NC(C)(C(C)C)C(=O)N2)c(C(=O)O)c1` (single isomer, unassigned; (+)) [imazamox, (+)-5-methoxymethyl-2-(4-isopropyl-4-methyl-5-oxo-2-imidazolin-2-yl) nicotinic acid], the “Resistance of the rice line (in words)” value in test [2] is given as “resistance”.
Take `CC(C)C1(C)N=C(c2ncccc2C(=O)O)NC1=O` (stereo not shown) [imazapyr, 2-[4,5-dihydro-4-methyl-4-(1-methylethyl)-5-oxo-1H-imidazol-2-yl]-3-pyridinecarboxylic acid]: the “Resistance of the rice line (in words)” value in test [1] (setting [4]) is “exhibited resistance”; in test [2] it was “resistance”.
For `CC(C)C1(C)N=C(c2nc3ccccc3cc2C(=O)O)NC1=O` (stereo not shown) [imazaquin, 2-[4,5-dihydro-4-methyl-4-(1-methylethyl)-5-oxo-1H-imidazol-2-yl]-3-quinolinecarboxylic acid], the “Resistance of the rice line (in words)” value is “good resistance” in test [1] (setting [5]), “good resistance” in test [1] (setting [6]) and “resistance” in test [2].
Consider `COc1cc(OC)nc(NC(=O)NS(=O)(=O)c2ncccc2C(=O)N(C)C)n1` [nicosulfuron, 2-(((((4,6-dimethoxypyrimidin-2-yl)aminocarbonyl))aminosulfonyl))-N,N-dimethyl-3-pyridinecarboxamide], for which the “Resistance of the rice line (in words)” value was “excellent resistance” in test [1] (setting [5]), “excellent resistance” in test [1] (setting [6]) and “resistance” in test [2]. Also, the “Symptoms of injury (in words)” value in test [3] was “either severely injured or dead”.
`COC(=O)c1ccccc1S(=O)(=O)NC(=O)Nc1nc(OC(F)F)cc(OC(F)F)n1` [primisulfuron, 3-[4,6-bis(difluoromethoxy)-pyrimidin-2-yl]-1-(2-methoxycarbonylphenylsulfonyl)urea]: the “Resistance of the rice line (in words)” value in test [1] (setting [6]) is listed as “lower, but still significantly greater than that of the check rice varieties”.
